One test deals with T1, adenosine A1 receptor (Rattus norvegicus, UniProt P25099).
T1 construct: Whole brain minus cerebellum and brainstem from male Long Evans rats; from tissue; host or cells: rat whole brain minus cerebellum and brainstem (male Long Evans), membranes
T1 sequence (P25099 1-326): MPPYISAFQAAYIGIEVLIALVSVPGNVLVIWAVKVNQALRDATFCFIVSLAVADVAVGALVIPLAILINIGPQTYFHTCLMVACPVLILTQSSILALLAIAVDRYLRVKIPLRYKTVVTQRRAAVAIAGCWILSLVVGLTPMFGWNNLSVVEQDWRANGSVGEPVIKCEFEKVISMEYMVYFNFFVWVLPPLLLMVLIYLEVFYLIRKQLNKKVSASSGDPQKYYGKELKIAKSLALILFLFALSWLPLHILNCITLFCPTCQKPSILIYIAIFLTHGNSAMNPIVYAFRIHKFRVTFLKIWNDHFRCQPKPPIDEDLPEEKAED
In words: Adenosine Receptor Binding--A1 Receptor Affinity (RBA1), [3H]-CHA binding, rat whole brain membranes. Also noted: species or system rat (male Long Evans). As to conditions: 1.0 nM [3H]-CHA, 25° C., 1 h. The procedure: Adenosine Receptor Binding--A1 Receptor Affinity (RBA1)
Whole brain minus cerebellum and brainstem from male Long Evans rats (150-200 g) was homogenized in 30 volumes of ice-cold 0.05M Tris-HCl buffer pH 7.7 using a Brinkman Polytron PT-10, (setting number 6 for 20 seconds) and centrifuged for ten minutes at 20,000×g (Sorvall RC-2), 4° C. The supernatant was discarded, and the pellet was resuspended and centrifuged as before. The pellet was resuspended in 20 ml Tris-HCl buffer containing two International Units/ml of adenosine deaminase (Sigma type III from calf intestinal mucosa), incubated at 37° C. for 30 minutes, then subsequently at 0° C. for ten minutes. The homogenate was again centrifuged, and the final pellet was resuspended in ice-cold 0.05M Tris-HCl buffer pH 7.7 to a concentration of 20 mg/ml original wet tissue weight and used immediately.
Tissue homogenate (10 mg/ml) was incubated in 0.05M Tris-HCl buffer pH 7.7 containing 1.0 nM [^3 H]-N^6 -cyclohexyladenosine[^3 H]-CHA) with or without test agents in triplicate for one hour at 25° C. Incubation volume was 2 ml. Unbound [^3 H]-CHA was separated by rapid filtration under reduced pressure through Whatman glass fiber (GF/B) filters. The filters were rinsed three times with 5 ml of ice cold 0.05M Tris-HCl buffer pH 7.7. The radio-labeled ligand retained on the filter was measured by liquid scintillation spectrophotometry after shaking the filters for one hour or longer on a mechanical shaker in 10 ml of Beckman Ready-Solv HP scintillation cocktail.
Nonspecific binding was defined as the binding which occurred in the presence of 1 mM theophylline. The concentration of test agent which inhibited 50% of the specific binding (IC50) was determined by nonlinear computer curve fit. The Scatchard plot was calculated by linear regression of the line obtained by plotting the amount of radioligand bound (pmoles/gram of tissue) [formula] Since the amount of radioligand bound was a small fraction of the total amount added, free radioligand was defined as the concentration (nM) of radioligand added to the incubation mixture. The Hill coefficient was calculated by linear regression of the line obtained by plotting the log of the bound radioligand vs the log of the [formula] The maximal number of binding sites (Bmax) was calculated from the Scatchard plot.

Another test has as its target T2, adenosine A2 receptor (Rattus norvegicus, UniProt P30543).
T2 construct: 5 mg original tissue weight of rat weight of rat striatal membranes; tissue Pel-Freez (Rogers, Ark.) for the brains; host or cells: rat striatum (Sprague-Dawley; Long-Evans gave essentially identical results), membranes
In words: Adenosine Receptor Binding--A2 Receptor Affinity (RBA2), [3H]NECA binding, rat striatal membranes. Also on record: species or system rat (mixed sex Sprague-Dawley; male Long-Evans). As to conditions: 4 nM [3H]NECA, 50 nM N6-cyclopentyladenosine, 25° C., 60 min. The method, then: Adenosine Receptor Binding--A2 Receptor Affinity (RBA2)
Brains from 200-500 g mixed sex Sprague-Dawley rats were purchased from Pel-Freez (Rogers, Ark.). […] Brains were thawed and then kept on ice while the striata were dissected out. Striata were disrupted in 10 vol of ice-cold 50 mM Tris.HCl (pH 7.7 at 25° C., pH 8.26 at 5° C.) (Tris) for 30 seconds in a Polytron PT-10 (Brinkmann) at setting 5. The suspension was centrifuged at 50,000 xg for ten minutes, the supernatant discarded, the pellet resuspended in 10 vol ice-cold Tris as above, recentrifuged, resuspended at 1 g/5 ml, and stored in plastic vials at -70° C. […] When needed, tissue was thawed at room temperature, disrupted in a Polytron, and kept on ice until used.
Test compounds were dissolved at 10 mM in dimethylsulfoxide on the same day as the experiment, and diluted in dimethylsulfoxide to 100× the final incubation concentration. […] [^3 H]NECA was diluted to 40 nM in Tris. […] After all additions, the rack of tubes was vortexed, and the tubes were then incubated for 60 min at 25° C. in a shaking water bath. The rack of tubes was vortexed an additional time halfway through the incubation.
Incubations were terminated by filtration through 2.4 cm GF/B filters under reduced pressure. Each tube was filtered as follows: the contents of the tube were poured onto the filter, 4 ml of ice-cold Tris were added to the tube and the contents poured onto the filter, and the filter was washed twice with 4 ml of ice-cold Tris. The filtration was complete in about twelve seconds. Filters were put in scintillation vials, 8 ml of Formula 947 scintillation fluid added, and the vials left overnight, shaken, and counted in a liquid scintillation counter at 40% efficiency.
The IC50 was calculated by weighted nonlinear least squares curve-fitting to the mass-action equation. [formula] where Y is cpm bound
T is cpm total binding without drug
S is cpm specific binding without drug
D is the concentration of drug
K is the IC50 of the drug
Weighting factors were calculated under the assumption that the standard deviation was proportional to the predicted value of Y. Nonspecific binding was treated as a very large (infinite) concentration of drug in the computer analysis.

Test [1] can be described thus: Mouse Activity and Screen Test (MAST), screen test failure (ST). In kind it is in vivo, mouse (Swiss-Webster, male). As to conditions: for Inhibition of screen test failure: percent of mice falling off the screen; for minimal effective dose: Mus musculus, ip, read-out: MAST ST LAD. The procedure: Treatments are administered intraperitoneally one hour prior to testing. […] Compounds are dissolved or suspended in 0.2% Methocel. Control animals are injected with Methocel.
The compounds are identified in the Examples.

[2] abbreviates: lowest dose at which an A rating is achieved, screen test, intraperitoneal, 1 h prior to testing.

Like-named read-outs stand apart in the source and are kept apart here.

T2 sequence (P30543 whole entry): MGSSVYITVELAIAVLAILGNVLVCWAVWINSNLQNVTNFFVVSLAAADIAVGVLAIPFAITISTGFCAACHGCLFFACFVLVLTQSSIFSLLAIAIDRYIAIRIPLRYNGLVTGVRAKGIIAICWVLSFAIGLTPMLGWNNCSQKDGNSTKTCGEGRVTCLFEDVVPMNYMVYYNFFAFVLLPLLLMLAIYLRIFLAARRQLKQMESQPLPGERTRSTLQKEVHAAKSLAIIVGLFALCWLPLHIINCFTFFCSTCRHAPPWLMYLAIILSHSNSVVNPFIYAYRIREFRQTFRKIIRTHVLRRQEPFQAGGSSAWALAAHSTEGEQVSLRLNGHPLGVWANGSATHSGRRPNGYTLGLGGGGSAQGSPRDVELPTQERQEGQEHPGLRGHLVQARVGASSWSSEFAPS

Consider `OC[C@H]1O[C@@H](n2cnc3c(NCC(c4ccccc4)c4ccccc4)nc(Cl)nc32)[C@H](O)[C@@H]1O` [Example 3, N^6-(2,2-Diphenylethyl)-2-chloroadenosine], for which the IC50 (usually the midpoint of a concentration-inhibition curve) at adenosine A1 receptor was 67 nM; at adenosine A2 receptor it was 139 nM. The “Inhibition of screen test failure” value worked out at 0% in test [1] (10 mg/kg intraperitoneal), 11% in test [1] (30 mg/kg intraperitoneal) and 44% in test [1] (100 mg/kg intraperitoneal). The minimal effective dose in test [1] (setting [2]) was > 100 mg/kg.

Consider `Nc1nc(NCC(c2ccccc2)c2ccccc2)c2ncn([C@@H]3O[C@H](CO)[C@@H](O)[C@H]3O)c2n1` [Example 4, N^6-(2,2-Diphenylethyl)-2-aminoadenosine], for which the IC50 was found to be 89 nM on adenosine A1 receptor and 275 nM on adenosine A2 receptor. Besides, the entries for the “Inhibition of screen test failure” value in test [1] (10 mg/kg intraperitoneal), in test [1] (30 mg/kg intraperitoneal) and in test [1] (100 mg/kg intraperitoneal) were 0%, 11% and 22%, respectively. Further, the minimal effective dose in test [1] (setting [2]) is > 100 mg/kg.

On to `OC[C@H]1O[C@@H](n2cnc3c(NC(c4ccccc4)c4ccccc4)ncnc32)[C@H](O)[C@@H]1O` [Example 5, N^6 -Diphenylmethyladenosine], for which the IC50 was 846 nM on adenosine A1 receptor and 5650 nM at adenosine A2 receptor. Moreover, the minimal effective dose in test [1] (setting [2]) is > 100 mg/kg.

As to `OC[C@H]1O[C@@H](n2cnc3c(NCCCC(c4ccccc4)c4ccccc4)ncnc32)[C@H](O)[C@@H]1O` [Example 6, N^6-(4,4-Diphenylbutyl)adenosine], the IC50 amounted to 518 nM on adenosine A1 receptor and 9520 nM on adenosine A2 receptor. The minimal effective dose in test [1] (setting [2]) was > 100 mg/kg.

As to `OC[C@H]1O[C@@H](n2cnc3c(NCCCCC(c4ccccc4)c4ccccc4)ncnc32)[C@H](O)[C@@H]1O` [Example 7, N^6-(5,5-Diphenylpentyl)adenosine], the IC50 on adenosine A1 receptor was 147 nM; at adenosine A2 receptor, 3290 nM. Further, the minimal effective dose in test [1] (setting [2]) was > 100 mg/kg.

Turning to `CC(CNc1ncnc2c1ncn2[C@@H]1O[C@H](CO)[C@@H](O)[C@H]1O)(c1ccccc1)c1ccccc1` [Example 8, N^6-(2,2-Diphenylpropyl)adenosine], the IC50 on adenosine A1 receptor worked out at 66 nM; on adenosine A2 receptor, 41 nM. The minimal effective dose in test [1] (setting [2]) was > 100 mg/kg.

Regarding `Cc1cccc(C(CNc2ncnc3c2ncn3[C@@H]2O[C@H](CO)[C@@H](O)[C@H]2O)c2ccccc2)c1` (stereo partly drawn) [Example 9, N^6-(2-(3-Methylphenyl)-2-phenylethyl)adenosine], the IC50 on adenosine A1 receptor stood at 13 nM; on adenosine A2 receptor it was 17 nM. The minimal effective dose in test [1] (setting [2]) is 100 mg/kg.

For the compound `OC[C@H]1O[C@@H](n2cnc3c(NCC(c4ccccc4)c4ccc(F)cc4)ncnc32)[C@H](O)[C@@H]1O` (stereo partly drawn) [Example 10, N^6-(2-(4-Fluorophenyl)-2-phenylethyl)adenosine], the figures for the IC50 at adenosine A1 receptor and on adenosine A2 receptor were 14 nM and 71 nM, respectively. Further, the minimal effective dose in test [1] (setting [2]) is > 100 mg/kg.

With `OC[C@H]1O[C@@H](n2cnc3c(NCC(c4ccccc4)c4ccc(F)cc4)nc(Cl)nc32)[C@H](O)[C@@H]1O` (stereo partly drawn) [Example 11, N^6-(2-(4-Fluorophenyl)-2-phenylethyl)-2-chloroadenosine], the values for the IC50 at adenosine A1 receptor and at adenosine A2 receptor were 69 nM and 210 nM, respectively. For the same compound, in test [1] (setting [2]), the minimal effective dose is > 100 mg/kg.

For `Nc1nc(NCC(c2ccccc2)c2ccc(F)cc2)c2ncn([C@@H]3O[C@H](CO)[C@@H](O)[C@H]3O)c2n1` (stereo partly drawn) [Example 12, N^6-(2-(4-Fluorophenyl)-2-phenylethyl)-2-amino adenosine], the IC50 is 94 nM at adenosine A1 receptor and 303 nM on adenosine A2 receptor. In test [1] (setting [2]), the minimal effective dose is > 100 mg/kg.

Turning to `OC[C@H]1O[C@@H](n2cnc3c(NCC(c4ccc(F)cc4)c4ccc(F)cc4)ncnc32)[C@H](O)[C@@H]1O` [Example 13, N^6-(2,2-Di-(4-fluorophenyl)ethyl)adenosine], the half-inhibitory concentration (IC50) was 16 nM at adenosine A1 receptor and 94 nM on adenosine A2 receptor. The minimal effective dose in test [1] (setting [2]) was > 100 mg/kg.

For `OC[C@H]1O[C@@H](n2cnc3c(NCC(c4ccccc4)c4cccc(Cl)c4)ncnc32)[C@H](O)[C@@H]1O` (stereo partly drawn) [Example 14, N^6-(2-(3-Chlorophenyl)-2-phenylethyl)adenosine], the minimal effective dose in test [1] (setting [2]) was > 100 mg/kg.

With `OC[C@H]1O[C@@H](n2cnc3c(NCC(c4ccccc4)c4ccc(Cl)cc4)ncnc32)[C@H](O)[C@@H]1O` (stereo partly drawn) [Example 15, N^6-(2-(4-Chlorophenyl)-2-phenylethyl)adenosine], the IC50 is 27 nM on adenosine A1 receptor and 90 nM at adenosine A2 receptor. The minimal effective dose in test [1] (setting [2]) was > 100 mg/kg.

With `Nc1nc(NCC(c2ccccc2)c2ccc(Cl)cc2)c2ncn([C@@H]3O[C@H](CO)[C@@H](O)[C@H]3O)c2n1` (stereo partly drawn) [Example 16], the IC50 on adenosine A1 receptor turned out to be 223 nM; on adenosine A2 receptor it was 319 nM. Besides, the minimal effective dose in test [1] (setting [2]) was > 100 mg/kg.

Consider `OC[C@H]1O[C@@H](n2cnc3c(NCC(c4ccc(Cl)cc4)c4ccc(Cl)cc4)ncnc32)[C@H](O)[C@@H]1O` [Example 17, N^6-(2,2-Di(4-chlorophenyl)ethyl)adenosine], for which the results for the IC50 on adenosine A1 receptor and on adenosine A2 receptor were 512 nM and 713 nM, respectively. For the same compound, the minimal effective dose in test [1] (setting [2]) is > 100 mg/kg.

Turning to `Nc1nc(NCC(c2ccc(Cl)cc2)c2ccc(Cl)cc2)c2ncn([C@@H]3O[C@H](CO)[C@@H](O)[C@H]3O)c2n1` [Example 18], the IC50 at adenosine A1 receptor was 1920 nM; on adenosine A2 receptor, 2120 nM.

Turning to `COc1ccc(C(CNc2ncnc3c2ncn3[C@@H]2O[C@H](CO)[C@@H](O)[C@H]2O)c2ccccc2)cc1` (stereo partly drawn) [Example 19, N^6-(2-(4-Methoxyphenyl)-2-phenylethyl)adenosine], the IC50 turned out to be 21 nM at adenosine A1 receptor and 56 nM on adenosine A2 receptor. The minimal effective dose in test [1] (setting [2]) is 30 mg/kg.

For the compound `O=[N+]([O-])c1ccc(C(CNc2ncnc3c2ncn3[C@@H]2O[C@H](CO)[C@@H](O)[C@H]2O)c2ccc([N+](=O)[O-])cc2)cc1` [Example 20], in test [1] (1 h), the minimal effective dose was > 100 mg/kg.

Consider `O=P(O)(O)OC[C@H]1O[C@@H](n2cnc3c(NCC(c4ccccc4)c4ccccc4)ncnc32)[C@H](O)[C@@H]1O` [Example 28, N^6-(2,2-Diphenylethyl)adenosine-5'-phosphate], for which the IC50 at adenosine A2 receptor is ~20 nM. Moreover, the minimal effective dose in test [1] (setting [2]) is > 30 mg/kg.

The values above are taken from patent publication US4657897A, “N^6 -substituted adenosines for treating pain” (Warner-Lambert Company, priority 1985, dated 1987).
